Assay results taken from paper PMC3849272, “Strong cellulase inhibitors from the hydrothermal pretreatment of wheat straw” (Biotechnology for Biofuels, 2013).

Key:
[1] = target: T1, TrCel7A (Trichoderma reesei, UniProt P62694); experiment: inhibition of 4-methylumbelliferyl-beta-lactoside hydrolysis, fluorescence, initial rates; assay type: biochemical; settings: 5 μM MUL, 10 nM enzyme, 50 mM sodium acetate pH 5.0, BSA 0.1 g/l, 35°C
T1 construct: gene cbh1; native enzyme purified from culture filtrate of T. reesei QM 9414; secreted, signal peptide removed; about 50 kDa
T1 sequence (P62694 18-513): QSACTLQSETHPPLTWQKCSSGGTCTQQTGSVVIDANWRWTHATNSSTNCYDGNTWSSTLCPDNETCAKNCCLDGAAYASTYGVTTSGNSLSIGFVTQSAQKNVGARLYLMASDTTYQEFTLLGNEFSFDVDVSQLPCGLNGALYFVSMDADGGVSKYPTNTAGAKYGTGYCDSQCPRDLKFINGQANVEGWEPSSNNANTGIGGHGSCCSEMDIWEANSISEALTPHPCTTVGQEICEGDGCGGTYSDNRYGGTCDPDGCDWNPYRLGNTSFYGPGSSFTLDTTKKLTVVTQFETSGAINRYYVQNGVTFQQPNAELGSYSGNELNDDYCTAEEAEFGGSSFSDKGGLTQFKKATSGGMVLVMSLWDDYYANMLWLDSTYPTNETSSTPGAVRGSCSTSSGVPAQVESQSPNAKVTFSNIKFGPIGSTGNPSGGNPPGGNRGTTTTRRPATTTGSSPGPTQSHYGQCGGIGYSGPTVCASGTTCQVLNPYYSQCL

[2] = target: T2, TrCel7B (Trichoderma reesei, UniProt P07981); experiment: as above; assay type: biochemical; settings: 20 μM MUL, 10 nM enzyme, 50 mM sodium acetate pH 5.0, BSA 0.1 g/l, 35°C
T2 construct: gene egl1; native enzyme purified from culture filtrate of T. reesei QM 9414; secreted, signal peptide removed
T2 sequence (P07981 23-459): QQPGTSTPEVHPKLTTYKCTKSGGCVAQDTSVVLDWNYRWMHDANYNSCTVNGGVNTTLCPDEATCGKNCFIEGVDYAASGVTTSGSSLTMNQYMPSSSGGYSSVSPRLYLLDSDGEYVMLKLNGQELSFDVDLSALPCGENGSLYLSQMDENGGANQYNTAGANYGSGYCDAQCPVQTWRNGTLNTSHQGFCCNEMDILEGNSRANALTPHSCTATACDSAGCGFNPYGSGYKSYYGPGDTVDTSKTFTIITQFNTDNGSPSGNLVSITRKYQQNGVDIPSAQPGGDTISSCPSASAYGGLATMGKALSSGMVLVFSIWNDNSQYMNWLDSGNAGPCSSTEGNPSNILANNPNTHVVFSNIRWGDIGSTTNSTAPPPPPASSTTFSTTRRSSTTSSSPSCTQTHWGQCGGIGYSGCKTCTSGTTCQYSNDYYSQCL

With OC[C@H]1O[C@@H](O[C@H]2[C@H](O)[C@@H](O)C(O)O[C@@H]2CO)[C@H](O)[C@@H](O)[C@@H]1O (some centres unmarked) [cellobiose] the IC50 [1] was 0.036 ± 0.006 mM and the IC50 [2] was 8.9 ± 0.4 mM.
